Data: patent US11286256B2, “Bicyclic inhibitors of histone deacetylase” (Alkermes, Inc., priority 2017, dated 2022)
Values after ≈ are worked out from the molar mass of the structure shown. Read-outs that look alike come from different tables or passages of the source.

Key:
[1] = Brain and plasma exposure following IV and PO administration to mice; type: in vivo; settings: for Mouse IV-PO (1/10 mpk): F: IV 1 mpk / PO 10 mpk; for clearance / half-life: plasma
Experimental: Compounds were dosed in mice at either 10 mg/kg or 30 mg/kg PO, and were dosed at 1 mg/kg IV. Three animals for collection at each time point for plasma via bleeding at 0.25, 0.5, 1, 4, 12 and 24 h. Terminal bleeding for plasma and sampling for brain at 0.25, 0.5, 1, 4, 12 and 24 h (also three animals per brain exposure time point group). Total of six time points for plasma and six time points for brain.
Plasma: The animal was restrained manually at the designated time points, approximately 150 μL blood/time point was collected into K2EDTA tube via retro orbital puncture or cardiac puncture under anesthesia with Isoflurane. The blood sample was centrifuged (2000 g, 4° C., 5 min) to generate plasma within 30 min after bleeding.
Brain: At the designated time points, a mid-line incision was made in the animals scalp and the skin was retracted. Using small bone cutters and rongeurs, removed the skull overlying the brain. Removed the brain using a spatula and rinse with cold saline. Placed the brain in screw-top tubes, and then stored the tubes under −70° C. until analysis.

[2] = Aqueous kinetic solubility measurement; type: physicochemical
Experimental: Compounds were evaluated for their kinetic solubility in buffer or water. Aliquots of 8 μL of reference and test compound stock solutions (10 mM in DMSO) were added into 792 μL of 100 mM phosphate buffer (0.1 M NaPO4, pH 7.4). Final DMSO concentration is 1%. The sample tubes were shaken for 1 hour (1000 rpm) at room temperature. A calibration curve was prepared using 300 μM spiking solution (SS) in MeOH/ACN(4:1) (SS=add 6 μL 10 mM compound in 194 μL MeOH/ACN(4:1)). Samples were centrifuged for 10 min (12000 rpm) to precipitate undissolved particles, and the supernatants were transferred to a new tube or plate. Supernatants were diluted 10 times and 100 times with 100 mM buffer. Samples were then prepared for analysis by LC-MS/MS (Add 5 μL of compound samples (not diluted, 10 times diluted and 100 times diluted) and standard curve samples to 95 μL of ACN containing internal standard. Internal standards used are Propranolol, Ketoconazole, and Tamoxifen.

[3] = tested on: dendritic spines of CA1 pyramidal neurons, dorsal hippocampus; assay: Dendritic spine morphology in dorsal hippocampus (CA1) after 14 days of oral treatment; type: in vivo, wild type mice (C57BL/6J); settings: for Thin Spines (% increase over vehicle) / Total Spines (% increase over vehicle): 14 days, WT mice; for dendritic spine density (in words, earlier studies): Compound 2 at 1, 3, 6 and 20 mg/kg/day, Compound 1 at 10 mg/kg/day
Experimental: Compounds were evaluated to determine whether sub-chronic treatment could produce changes in dendritic spine morphology in the CA1 region of the dorsal hippocampus in wild type (WT) mice. Compounds were administered orally to wild type mice, daily for 14 days. Doses were chosen based on pharmacokinetic data, brain exposure, and potency. Effects of compounds treatments on dendritic spine morphology in the CA1 region of the dorsal hippocampus were then evaluated.
Male C57BL/6J mice (7-8-weeks old, n=7 per group) were dosed orally with Rodin compounds or vehicle (20% HPßCD) daily for 14 days. Doses for compounds were chosen based on exposure data from pharmacokinetic experiments. […] Mice were sacrificed 24 hours after the last dose, and underwent transcardial perfusion for preparation of brain samples.
Mice were anesthetized with chloral hydrate (4% chloral hydrate in saline, 10 ml/kg) before undergoing transcardial perfusion with 4% PFA in 1×PBS (pH7.4, room temperature) at 20 mL/min for 54 seconds. Immediately after the perfusion, mice were decapitated and their brain extracted. Brains were postfixed in scintillation vials containing 4% PFA (5-10 ml) for 4 min. Brains were sectioned using a tissue vibratome (Leica VT1000) to collect sections (300 μm thick) from the anterior to posterior extremes of each brain.
Superresolution laser-scanning confocal microscopy (Zeiss LSM880, Airyscan) was performed using a 63× objective (1.42 NA) to scan individually labeled neurons at high resolution (scan resolution=0.06 um μm/pixel; axial resolution=0.06 um μm/focal step). Target neurons were identified in the brain region of interest by epifluorescence navigation using anatomical location and cell morphology. Microscopy was performed blind to experimental conditions. A minimum of 7 mice were tested in each experimental condition. A minimum of 5 samples per mouse (range=5-6) were measured for each segment.
Blind deconvolution (AutoQuant) was applied to raw three-dimensional digital images which were then analyzed for spine density and morphology by trained analysts. Individual spines were measured manually for (a) head diameter, (b) length, and (c) neck thickness from image Z-stacks using custom-built Afraxis ESP software. Each dendrite was analyzed by 3 (on average) independent analysts. Automated image assignment software distributed images to analysts in a randomized manner and ensured that each analyst performed measurements of near equal numbers of dendrites per group. Analysts were blinded to all experimental conditions (including treatment, brain region, and cell type).
Each identified dendritic spine was measured for (a) spine length, (b) spine head diameter, and (c) neck width. Population distributions of each measure were compiled for each dendritic sample and pooled by group. Raw dendritic spine morphometric values (spine length, head diameter, neck width) were assembled into a scheme used to describe classic spine phenotypes (e.g. mushroom, stubby, etc.). Total spine density was also reported as the sum of the density of all subclasses.
General Observations. […] For adequate study to study comparisons, total spine density data were normalized to % vehicle levels
[formula] Data were then reported as mean+/−SEM of total spine density (% increase from Vehicle).

Row | Mouse IV-PO (1/10 mpk): F [1] [%] | Mouse PO (10 mpk): Brain Cmax ([1]; brain) [ng/g] | Mouse PO (10 mpk): Free brain Cmax ([1]; free brain) [ng/g] | Compound | Thin Spines (% increase over vehicle) ([3]; 0.1 mg/kg PO daily) [%] | Total Spines (% increase over vehicle) ([3]; 0.1 mg/kg PO daily) [%] | Thin Spines (% increase over vehicle) ([3]; 1 mg/kg PO daily) [%] | Total Spines (% increase over vehicle) ([3]; 1 mg/kg PO daily) [%] | Thin Spines (% increase over vehicle) ([3]; 3 mg/kg PO daily) [%] | Total Spines (% increase over vehicle) ([3]; 3 mg/kg PO daily) [%] | dendritic spine density (in words, earlier studies) [3] | other results
1 | – | – | – | Nc1ccc(-c2ccc(F)cc2)nc1NC(=O)N1Cc2cncnc2C1 [Comparator D] | – | – | – | – | – | – | – | Projected Brain Cmax @ 10 mpk (*scaled for comparison) ([1]; mouse, brain, scaled to 10 mpk for comparison): 158* ng/g
2 | 49 | 100 | 35 | Nc1ccc(-c2cccs2)nc1NC(=O)N1Cc2cncnc2C1 [Comparator E] | – | – | – | – | – | – | – | –
3 | – | – | – | COCc1cc2c(cn1)CN(C(=O)Nc1nc(-c3ccc(F)cc3F)ccc1N)C2 [Compound 1] | 13.8 | 12.2 | 45.1 | 34.6 | 25.3 | 26.7 | increases in dendritic spine density | solubility (in words) [2]: slightly reduced; solubility at 1 h ([2]; aqueous buffer, kinetic from dmso stock, kinetic, 100 mM phosphate buffer pH 7.4, 1% DMSO): 27 µM (≈ 11.1 µg/mL); Projected Brain Cmax @ 10 mpk ([1]; mouse, 10 mpk, brain): 2460 ng/g; Projected free brain @ 10 mpk ([1]; mouse, 10 mpk, free brain): 1.04 µM; clearance ([1]; 1 mg/kg, mouse, IV, read-out: IV PK Cl (converted)): 11.4 mL/min/kg; half-life ([1]; 1 mg/kg, mouse, IV, read-out: IV PK T ½ (converted)): 2.13 h; half-life ([1]; 10 mpk, mouse, PO, read-out: PK T ½ PO (converted)): 1.97 h; Thin Spines (% increase over vehicle) ([3]; 0.3 mg/kg PO daily): 23.2%; Total Spines (% increase over vehicle) ([3]; 0.3 mg/kg PO daily): 21.3%; Thin Spines (% increase over vehicle) ([3]; 10 mg/kg PO daily): 19.9%; Total Spines (% increase over vehicle) ([3]; 10 mg/kg PO daily): 25.1%
4 | 100 | 583 | 173 | Cc1ncc2c(n1)CN(C(=O)Nc1nc(-c3cccs3)ccc1N)C2 [Compound 2] | 11.3 | 8.1 | 21.2 | 21.4 | 32.2 | 24.7 | increases in dendritic spine density | higher brain exposure over the unsubstituted pyrimidine analog ([1]; mouse, relative to Comparator E): > 5 fold; clearance ([1]; 1 mg/kg, mouse, IV 1 mpk, read-out: Mouse IV (1 mpk): Cl (converted)): 69.7 mL/min/kg; half-life ([1]; 1 mg/kg, mouse, IV 1 mpk, read-out: Mouse IV (1 mpk): T1/2 (converted)): 0.839 h; half-life ([1]; 10 mpk, mouse, PO, read-out: Mouse PO (1/10 mpk): T1/2 (converted)): 1.05 h; Thin Spines (% increase over vehicle) ([3]; 6 mg/kg PO daily): 35.4%; Total Spines (% increase over vehicle) ([3]; 6 mg/kg PO daily): 15%; Thin Spines (% increase over vehicle) ([3]; 20 mg/kg PO daily): 37.4%; Total Spines (% increase over vehicle) ([3]; 20 mg/kg PO daily): −0.12%
